Measurements taken from PubChem BioAssay (NCI).
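Values below derive from 48-hour exposures of cells grown in 96-well plates, with endpoints linearly interpolated between the two concentrations bracketing the appropriate inhibition level. GI50 is the concentration that inhibits growth by half. TGI denotes the concentration required for complete inhibition of growth.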

Columns and labels:
Assay in all cases: DTP human tumour cell line panel, 48 h
RPMI-8226 leukemia = test system: RPMI-8226 leukemia
MALME-3M melanoma = test system: MALME-3M melanoma
NCI-H460 lung = test system: NCI-H460 lung
M14 melanoma = test system: M14 melanoma
HS 578T breast = test system: HS 578T breast
HT29 colon = test system: HT29 colon
BT-549 breast = test system: BT-549 breast
MDA-N = test system: MDA-N
786-0 renal = test system: 786-0 renal
DMS 273 small cell lung = test system: DMS 273 small cell lung
SNB-78 CNS = test system: SNB-78 CNS
KM20L2 colon = test system: KM20L2 colon

SMILES | TGI (RPMI-8226 leukemia) | TGI (MALME-3M melanoma) | TGI (NCI-H460 lung) | TGI (M14 melanoma) | TGI (HS 578T breast) | TGI (HT29 colon) | TGI (BT-549 breast) | TGI (MDA-N) | GI50 (RPMI-8226 leukemia) | GI50 (M14 melanoma) | GI50 (HT29 colon) | TGI (786-0 renal) | GI50 (MALME-3M melanoma) | GI50 (DMS 273 small cell lung) | TGI (DMS 273 small cell lung) | GI50 (NCI-H460 lung) | GI50 (SNB-78 CNS) | TGI (SNB-78 CNS) | GI50 (KM20L2 colon) | TGI (KM20L2 colon)
Oc1ccc(C(=C(Br)c2ccccc2)c2ccc(O)cc2)cc1 | 96.1 µM | 18 µM | 31.6 µM | 15.3 µM | 22 µM | 4.78 µM | 15.4 µM | 4.1 µM | – | – | – | – | – | – | – | – | – | – | – | –
O=C1c2cc3c(cc2-c2c1c1ccc(Cl)cc1c(=O)n2C[C@H](O)CO)OCO3 | 0.54 µM | – | – | 0.244 µM | – | > 100 µM | – | – | 0.0429 µM | 0.025 µM | 0.0348 µM | – | – | – | – | – | – | – | – | –
COC(=O)c1cc2c(cc1Cl)Sc1nnc(Nc3ccccc3)n1S2(=O)=O | 4.02 µM | 11.6 µM | 23.8 µM | 17.5 µM | 11.4 µM | 5.17 µM | 14.5 µM | – | – | – | – | 16.4 µM | – | – | – | – | – | – | – | –
C=C(C#N)C(=O)OCC(CC)CC.C=C(C#N)C(=O)OCC(CC)CC.CS(C)=O.CS(C)=O.Nc1c(N=Nc2ccc(-c3ccc(N=Nc4cc(S(=O)(=O)[O-])c5ccccc5c4N)cc3)cc2)cc(S(=O)(=O)[O-])c2ccccc12.[Pt+2] | > 80.8 µM | 50 µM | > 100 µM | – | – | > 69.7 µM | – | – | 26.9 µM | – | 27.2 µM | – | 21.8 µM | 40.4 µM | > 100 µM | 44.4 µM | 38.8 µM | > 95.6 µM | > 100 µM | > 100 µM
O=C1c2cc(O)c(O)cc2O[C@H](c2ccc(O)c(O)c2)[C@H]1O | > 100 µM | – | > 100 µM | > 100 µM | > 100 µM | > 100 µM | > 100 µM | > 100 µM | – | – | – | > 100 µM | – | – | – | – | – | – | – | –
Cc1ccc(S(=O)(=O)N(CC(O)COc2ccccc2)c2c(F)cccc2F)cc1 (centres undefined) | 34 µM | 52.4 µM | 31.6 µM | 32 µM | 46.1 µM | 36.3 µM | – | 31.4 µM | – | – | – | 42.1 µM | – | – | – | – | – | – | – | –
CCN(CC)CCNc1ccc2ncn3c4ccc(O)cc4c(=O)c1c23 | 11.1 µM | 15.8 µM | 12.2 µM | 9.05 µM | 21 µM | 7.06 µM | 24.9 µM | 17.9 µM | – | – | – | 14.1 µM | – | – | 12.5 µM | – | – | 17.6 µM | – | 14.9 µM
COc1ccc2nc3c(c(N)c2c1)C1CCC3C1(C)C (centres undefined) | 58.7 µM | 67.3 µM | > 100 µM | 33.6 µM | > 100 µM | > 100 µM | > 100 µM | – | – | – | – | 59.2 µM | – | – | – | – | – | – | – | –
CSCCC(C(=O)O)N(C)C (centres undefined) | > 100 µM | > 100 µM | > 100 µM | > 100 µM | > 100 µM | > 100 µM | > 100 µM | > 100 µM | – | – | – | > 100 µM | – | – | – | – | – | – | – | –
O=c1[nH]c2[nH]c(=S)[nH]c(=S)c2[nH]1 | > 100 µM | > 100 µM | > 100 µM | > 100 µM | > 100 µM | > 100 µM | > 100 µM | > 100 µM | – | – | – | > 100 µM | – | – | – | – | – | – | – | –
CN1C(=O)CC(=O)N1/C(=C/c1ccccc1)c1ccccc1 | > 100 µM | – | > 100 µM | > 100 µM | 88.1 µM | > 100 µM | > 100 µM | > 100 µM | – | – | – | – | – | – | – | – | – | – | – | –
O=C(CSCC(=O)N/N=C/c1cccc(O)c1)N/N=C/c1cccc(O)c1 | > 100 µM | > 100 µM | > 100 µM | > 100 µM | > 100 µM | > 100 µM | – | – | – | – | – | > 100 µM | – | – | – | – | – | – | – | –
Cc1ccc(S(=O)(=O)OC2CC(C(C)(C)C)CCC2c2ccccc2)cc1 (centres undefined) | > 100 µM | – | > 100 µM | > 100 µM | – | > 100 µM | > 100 µM | > 100 µM | – | – | – | > 100 µM | – | – | – | – | – | – | – | –
COc1ccc2nc3cc(Cl)ccc3c(NC(C)CCCN(CCCl)CCCl)c2c1 (centres undefined) | 2.93 µM | 9.63 µM | 1.58 µM | 2.78 µM | – | 2.81 µM | – | – | – | – | – | 3.87 µM | – | – | 2.27 µM | – | – | 7.38 µM | – | 5.73 µM
COc1ccc(OC)c2sc(N3C(=O)/C(=C/c4cccc(Oc5ccccc5)c4)N=C3c3ccccc3)nc12 | > 100 µM | > 100 µM | > 100 µM | > 100 µM | > 100 µM | > 100 µM | > 100 µM | > 100 µM | – | – | – | > 100 µM | – | – | – | – | – | – | – | –
